One test concerns the target D(1A) dopamine receptor (Homo sapiens, UniProt P21728). Format: functional, cell-based.
In the next test the target is Adenosine receptor A2a (Homo sapiens, UniProt P29274).
Another test has as its target T1, Endothelin-1 receptor (Homo sapiens, UniProt P25101).
T1 sequence (P25101 whole entry): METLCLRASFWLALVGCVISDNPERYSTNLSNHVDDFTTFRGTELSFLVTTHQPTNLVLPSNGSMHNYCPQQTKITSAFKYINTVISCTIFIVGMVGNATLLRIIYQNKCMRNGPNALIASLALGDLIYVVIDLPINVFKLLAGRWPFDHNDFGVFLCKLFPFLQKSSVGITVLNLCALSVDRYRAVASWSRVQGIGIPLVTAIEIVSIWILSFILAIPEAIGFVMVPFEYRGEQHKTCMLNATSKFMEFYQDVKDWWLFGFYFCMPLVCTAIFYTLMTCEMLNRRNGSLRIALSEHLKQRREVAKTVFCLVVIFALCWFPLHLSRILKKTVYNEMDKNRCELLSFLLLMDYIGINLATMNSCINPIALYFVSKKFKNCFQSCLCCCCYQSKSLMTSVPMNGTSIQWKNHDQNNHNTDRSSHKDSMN

The target in test [1] is T2, Amine oxidase [flavin-containing] A (Homo sapiens, UniProt P21397).
T2 sequence (P21397 whole entry): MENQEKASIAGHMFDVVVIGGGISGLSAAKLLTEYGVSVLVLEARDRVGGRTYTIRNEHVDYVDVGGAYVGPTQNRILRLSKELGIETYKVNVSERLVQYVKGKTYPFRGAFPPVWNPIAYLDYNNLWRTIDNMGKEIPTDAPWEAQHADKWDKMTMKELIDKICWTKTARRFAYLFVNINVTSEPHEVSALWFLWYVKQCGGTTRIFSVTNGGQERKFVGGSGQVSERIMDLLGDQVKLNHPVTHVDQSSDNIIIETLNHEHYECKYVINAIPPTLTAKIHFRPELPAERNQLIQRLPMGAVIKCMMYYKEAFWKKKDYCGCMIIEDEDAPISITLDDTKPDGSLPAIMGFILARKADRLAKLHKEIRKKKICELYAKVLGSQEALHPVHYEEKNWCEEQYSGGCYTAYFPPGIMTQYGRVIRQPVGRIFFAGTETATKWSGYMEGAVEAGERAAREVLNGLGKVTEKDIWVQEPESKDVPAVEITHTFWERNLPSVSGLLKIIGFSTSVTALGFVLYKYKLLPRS
Format: functional.

Test [2] addresses 5-hydroxytryptamine receptor 2B (Homo sapiens, UniProt P41595). Format: functional, cell-based.
Test [3] addresses cGMP-inhibited 3',5'-cyclic phosphodiesterase 3A (Homo sapiens, UniProt Q14432). Format: functional.
The target of test [4] is T3, Muscarinic acetylcholine receptor M1 (Homo sapiens, UniProt P11229).
T3 sequence (P11229 whole entry): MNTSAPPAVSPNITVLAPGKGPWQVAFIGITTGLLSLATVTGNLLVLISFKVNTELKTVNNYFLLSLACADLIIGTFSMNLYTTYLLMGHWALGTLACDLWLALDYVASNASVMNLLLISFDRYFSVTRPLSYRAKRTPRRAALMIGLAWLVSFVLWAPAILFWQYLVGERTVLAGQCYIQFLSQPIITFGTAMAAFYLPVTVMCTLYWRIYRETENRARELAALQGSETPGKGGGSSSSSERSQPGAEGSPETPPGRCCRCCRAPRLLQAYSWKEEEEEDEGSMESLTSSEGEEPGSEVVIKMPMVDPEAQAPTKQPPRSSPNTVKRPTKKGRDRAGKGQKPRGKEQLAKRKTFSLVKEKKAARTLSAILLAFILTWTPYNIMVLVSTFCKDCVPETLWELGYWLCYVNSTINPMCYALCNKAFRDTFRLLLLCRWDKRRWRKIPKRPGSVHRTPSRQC
Format: functional.

In test [5] the target is T4, Alpha-2A adrenergic receptor (Homo sapiens, UniProt P08913).
T4 sequence (P08913 whole entry): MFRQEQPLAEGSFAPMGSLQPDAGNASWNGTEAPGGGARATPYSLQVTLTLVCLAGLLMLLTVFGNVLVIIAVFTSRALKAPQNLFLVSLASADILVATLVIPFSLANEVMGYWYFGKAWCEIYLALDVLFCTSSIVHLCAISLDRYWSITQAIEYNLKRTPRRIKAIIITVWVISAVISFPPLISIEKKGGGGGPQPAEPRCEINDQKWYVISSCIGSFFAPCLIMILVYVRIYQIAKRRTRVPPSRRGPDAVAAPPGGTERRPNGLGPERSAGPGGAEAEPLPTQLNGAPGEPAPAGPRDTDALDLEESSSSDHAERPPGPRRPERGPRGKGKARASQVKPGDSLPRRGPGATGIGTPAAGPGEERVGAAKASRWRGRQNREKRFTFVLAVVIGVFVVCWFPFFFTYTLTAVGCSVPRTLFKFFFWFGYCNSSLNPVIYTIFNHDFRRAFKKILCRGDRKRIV
Format: functional, cell-based.

Test [6] deals with T5, 5-hydroxytryptamine receptor 2C (Homo sapiens, UniProt P28335).
T5 sequence (P28335 whole entry): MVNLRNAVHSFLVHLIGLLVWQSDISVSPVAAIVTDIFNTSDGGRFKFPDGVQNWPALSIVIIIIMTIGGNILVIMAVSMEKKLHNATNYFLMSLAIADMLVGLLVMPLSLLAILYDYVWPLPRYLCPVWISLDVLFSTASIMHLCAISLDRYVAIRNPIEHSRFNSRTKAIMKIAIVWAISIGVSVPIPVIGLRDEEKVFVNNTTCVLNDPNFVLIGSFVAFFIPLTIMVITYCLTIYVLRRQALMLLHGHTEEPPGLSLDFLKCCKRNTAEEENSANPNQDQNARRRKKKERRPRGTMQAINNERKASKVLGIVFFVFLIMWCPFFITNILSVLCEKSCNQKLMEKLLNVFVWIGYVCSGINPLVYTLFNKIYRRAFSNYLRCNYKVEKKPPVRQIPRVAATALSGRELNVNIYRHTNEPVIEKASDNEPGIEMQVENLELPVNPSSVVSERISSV

The target in test [7] is Sodium-dependent dopamine transporter (Homo sapiens, UniProt Q01959).
Chain of Sodium-dependent dopamine transporter (Q01959 whole entry): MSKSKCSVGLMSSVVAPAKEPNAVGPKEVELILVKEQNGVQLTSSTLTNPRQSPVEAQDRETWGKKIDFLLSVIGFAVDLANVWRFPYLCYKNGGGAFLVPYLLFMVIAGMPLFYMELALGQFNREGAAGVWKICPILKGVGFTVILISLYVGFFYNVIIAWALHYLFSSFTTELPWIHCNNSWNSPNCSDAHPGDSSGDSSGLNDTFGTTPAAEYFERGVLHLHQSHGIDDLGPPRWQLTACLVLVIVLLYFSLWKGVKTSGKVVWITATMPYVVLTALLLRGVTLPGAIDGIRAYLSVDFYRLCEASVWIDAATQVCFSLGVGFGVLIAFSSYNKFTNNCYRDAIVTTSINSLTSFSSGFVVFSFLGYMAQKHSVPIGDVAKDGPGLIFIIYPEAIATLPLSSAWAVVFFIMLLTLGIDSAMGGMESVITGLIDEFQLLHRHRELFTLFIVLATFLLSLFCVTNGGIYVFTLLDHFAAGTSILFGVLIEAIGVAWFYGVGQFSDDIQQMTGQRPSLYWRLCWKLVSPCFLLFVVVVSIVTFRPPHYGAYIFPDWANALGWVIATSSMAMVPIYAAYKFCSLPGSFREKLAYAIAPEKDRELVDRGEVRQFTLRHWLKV
Also: assay procedure not described here.

Chain of D(1A) dopamine receptor (P21728 whole entry): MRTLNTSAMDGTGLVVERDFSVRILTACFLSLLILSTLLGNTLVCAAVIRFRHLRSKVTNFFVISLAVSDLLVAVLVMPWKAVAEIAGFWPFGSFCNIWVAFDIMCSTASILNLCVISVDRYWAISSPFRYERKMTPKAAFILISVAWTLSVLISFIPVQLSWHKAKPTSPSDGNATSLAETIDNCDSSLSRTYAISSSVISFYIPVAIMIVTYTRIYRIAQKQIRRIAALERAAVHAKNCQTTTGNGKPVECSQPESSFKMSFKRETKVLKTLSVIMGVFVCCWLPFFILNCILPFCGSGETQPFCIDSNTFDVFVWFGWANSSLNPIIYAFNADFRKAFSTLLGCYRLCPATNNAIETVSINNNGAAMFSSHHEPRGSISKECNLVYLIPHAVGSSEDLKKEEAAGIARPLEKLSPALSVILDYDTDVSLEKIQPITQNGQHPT
Chain of cGMP-inhibited 3',5'-cyclic phosphodiesterase 3A (Q14432 whole entry): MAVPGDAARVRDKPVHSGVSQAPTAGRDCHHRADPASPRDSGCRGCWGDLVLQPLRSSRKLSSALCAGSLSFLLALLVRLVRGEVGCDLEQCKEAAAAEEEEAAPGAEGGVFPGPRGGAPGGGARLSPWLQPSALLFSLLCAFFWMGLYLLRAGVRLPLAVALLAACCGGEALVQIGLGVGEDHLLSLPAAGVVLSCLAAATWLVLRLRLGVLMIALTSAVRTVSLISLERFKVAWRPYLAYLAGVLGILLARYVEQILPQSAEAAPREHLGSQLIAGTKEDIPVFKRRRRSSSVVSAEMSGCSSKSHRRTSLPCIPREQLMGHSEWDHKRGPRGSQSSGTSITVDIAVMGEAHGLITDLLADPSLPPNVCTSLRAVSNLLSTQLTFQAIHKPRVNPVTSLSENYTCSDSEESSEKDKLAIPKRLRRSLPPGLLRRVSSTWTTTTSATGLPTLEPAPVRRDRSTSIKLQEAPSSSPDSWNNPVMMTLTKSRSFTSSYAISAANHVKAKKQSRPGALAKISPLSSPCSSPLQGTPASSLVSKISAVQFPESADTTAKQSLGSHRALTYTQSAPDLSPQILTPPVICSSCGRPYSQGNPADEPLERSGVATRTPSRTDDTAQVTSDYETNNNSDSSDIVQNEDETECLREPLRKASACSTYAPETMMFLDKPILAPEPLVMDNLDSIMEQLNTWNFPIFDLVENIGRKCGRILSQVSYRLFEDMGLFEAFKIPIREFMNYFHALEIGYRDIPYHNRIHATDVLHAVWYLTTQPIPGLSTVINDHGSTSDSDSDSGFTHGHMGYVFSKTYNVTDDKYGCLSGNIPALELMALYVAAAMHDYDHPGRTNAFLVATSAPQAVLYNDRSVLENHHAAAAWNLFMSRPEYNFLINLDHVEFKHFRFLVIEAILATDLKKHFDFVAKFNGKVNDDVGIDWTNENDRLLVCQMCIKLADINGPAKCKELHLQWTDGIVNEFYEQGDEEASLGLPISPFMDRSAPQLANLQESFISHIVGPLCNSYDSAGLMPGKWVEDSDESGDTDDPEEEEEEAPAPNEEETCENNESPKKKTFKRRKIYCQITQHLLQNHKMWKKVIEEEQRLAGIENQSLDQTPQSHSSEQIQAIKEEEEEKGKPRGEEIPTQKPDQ
Chain of 5-hydroxytryptamine receptor 2B (P41595 whole entry): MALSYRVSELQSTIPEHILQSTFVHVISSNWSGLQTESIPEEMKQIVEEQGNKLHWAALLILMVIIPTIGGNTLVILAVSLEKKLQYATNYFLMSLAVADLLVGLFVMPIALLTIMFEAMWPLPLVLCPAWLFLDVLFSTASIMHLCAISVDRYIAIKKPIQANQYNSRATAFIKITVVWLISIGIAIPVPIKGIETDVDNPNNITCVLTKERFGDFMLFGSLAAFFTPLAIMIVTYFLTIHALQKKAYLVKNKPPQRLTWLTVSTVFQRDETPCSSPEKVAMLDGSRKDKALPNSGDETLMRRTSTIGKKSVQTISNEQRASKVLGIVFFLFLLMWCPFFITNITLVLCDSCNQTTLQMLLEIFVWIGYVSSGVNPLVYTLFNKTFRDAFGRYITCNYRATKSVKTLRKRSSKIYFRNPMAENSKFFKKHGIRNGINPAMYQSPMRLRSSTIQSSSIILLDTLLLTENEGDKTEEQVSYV
Chain of Adenosine receptor A2a (P29274 whole entry): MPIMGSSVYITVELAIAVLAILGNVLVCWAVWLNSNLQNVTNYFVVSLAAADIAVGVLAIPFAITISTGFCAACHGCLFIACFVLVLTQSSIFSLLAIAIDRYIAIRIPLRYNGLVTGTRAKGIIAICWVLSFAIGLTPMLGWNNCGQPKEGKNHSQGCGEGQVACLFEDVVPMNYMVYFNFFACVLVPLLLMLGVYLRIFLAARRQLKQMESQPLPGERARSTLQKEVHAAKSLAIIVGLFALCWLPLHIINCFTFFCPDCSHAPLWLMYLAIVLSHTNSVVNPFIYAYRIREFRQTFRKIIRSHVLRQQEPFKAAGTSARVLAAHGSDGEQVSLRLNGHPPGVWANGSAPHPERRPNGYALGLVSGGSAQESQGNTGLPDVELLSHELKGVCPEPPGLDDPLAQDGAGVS

Consider `CN(C)CCC=C1c2ccccc2C=Cc2ccccc21` [CYCLOBENZAPRINE], for which the AC50 on D(1A) dopamine receptor was over 10 µM; at Adenosine receptor A2a, over 30 µM; at Endothelin-1 receptor, over 30 µM; in test [1] it was over 10 µM; in test [2], 1.25 µM; in [3], over 30 µM. The half-maximal activity concentration (AC50) in [4] is 0.18 µM; in test [5], over 10 µM; in test [6], 0.88 µM; in test [7], over 30 µM.
Turning to `COc1ccc(C(=O)Nc2ccccc2CCC2CCCCN2C)cc1` (stereo not given) [ENCAINIDE], the AC50 was over 10 µM at D(1A) dopamine receptor; over 30 µM on Adenosine receptor A2a; over 30 µM at Endothelin-1 receptor; over 10 µM in test [1]; over 10 µM in [2]; over 30 µM in test [3]. The AC50 is over 10 µM in test [4], over 10 µM in test [5], 0.81 µM in test [6] and over 10 µM in test [7].
As to `O=[N+]([O-])O[C@@H]1CO[C@H]2[C@@H]1OC[C@@H]2O` [ISOSORBIDE MONONITRATE], the AC50 was over 10 µM on D(1A) dopamine receptor; over 30 µM at Adenosine receptor A2a; over 30 µM on Endothelin-1 receptor; over 10 µM in [1]; over 10 µM in [2]; over 30 µM in [3]. Besides, the AC50 in test [4] was over 10 µM; in [5] it was over 10 µM; in test [6], over 30 µM; in test [7], over 10 µM.
Take `CCCCCNC(=N)N/N=C/c1c[nH]c2ccc(OC)cc12` [TEGASEROD]: the AC50 on D(1A) dopamine receptor was 0.34 µM; at Adenosine receptor A2a, over 30 µM; at Endothelin-1 receptor, over 30 µM; in test [1], over 30 µM; in test [2], 0.343 µM; in test [3] it was over 30 µM. Also, the AC50 is over 30 µM in test [4], 5.65 µM in [5], 0.543 µM in test [6] and 6.78 µM in test [7].
`CN(C)CCc1c[nH]c2ccc(C[C@H]3COC(=O)N3)cc12` [ZOLMITRIPTAN]: the AC50 (at D(1A) dopamine receptor; on Adenosine receptor A2a; on Endothelin-1 receptor; in test [1]; in test [2]; in test [3]) was over 30 µM throughout. The AC50 in test [4], in test [5], in [6] and in test [7] was over 30 µM in each case.

As a reminder, the AC50 is the concentration giving half of the maximal activity seen.

For the origin of these results see ChEMBL document CHEMBL5291721, “A preclinical secondary pharmacology resource illuminates target-adverse drug reaction associations of marketed drugs” (Nat Commun, 2023).
